Source: PubChem BioAssay (NCI)
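Test compounds were applied to cells in 96-well plates for 48 hours at 5 doses. GI50: concentration for 50% inhibition of growth. Definition used: TGI = concentration required for complete inhibition of growth.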

Legend:
Assay in all cases: NCI-60 cell line screen, 48 h
[1] = tested on: A498 renal
[2] = tested on: UACC-257 melanoma
[3] = tested on: CAKI-1 renal
[4] = tested on: HOP-92 NSCLC
[5] = tested on: HL-60(TB) leukemia
[6] = tested on: NCI-H460 lung
[7] = tested on: SF-295 CNS
[8] = tested on: UO-31 renal
[9] = tested on: KM12 colon
[10] = tested on: BT-549 breast

| Structure (SMILES) | TGI [1] | TGI [2] | TGI [3] | TGI [4] | TGI [5] | TGI [6] | TGI [7] | TGI [8] | TGI [9] | GI50 [1] | GI50 [2] | GI50 [10] | TGI [10] | GI50 [3] | GI50 [4] | GI50 [6] | GI50 [7] | GI50 [8] | GI50 [9] |
| --- | --- | --- | --- | --- | --- | --- | --- | --- | --- | --- | --- | --- | --- | --- | --- | --- | --- | --- | --- |
| NC(=O)NNC(=O)NC12CC3CC(CC(C3)C1)C2 | > 100 µM | > 100 µM | > 100 µM | > 100 µM | > 100 µM | > 100 µM | > 100 µM | > 100 µM | > 100 µM |  |  |  |  |  |  |  |  |  |  |
| N#CC(c1ccccn1)c1nc2ccccc2[nH]1 (configuration not stated) | > 100 µM | > 100 µM | > 100 µM |  | > 100 µM | > 100 µM | > 100 µM | > 100 µM |  |  |  |  |  |  |  |  |  |  |  |
| O=C(O)/C=C/c1nc2ccccc2c(=O)o1 |  |  |  | > 100 µM | > 100 µM |  | > 100 µM | > 100 µM | > 100 µM |  |  |  |  |  |  |  |  |  |  |
| Cc1cc(C#Cc2ccc(C(C)(C)C)cc2)ccc1-n1c(/C=C/c2ccc(O)cc2O)nc2ccccc2c1=O | 11.4 µM | 20.4 µM | 16.2 µM | 8.31 µM |  | 3.75 µM | 16.5 µM | 15.5 µM | 10.8 µM | 2.98 µM | 6.92 µM | 8.6 µM | 33.1 µM | 2.87 µM | 2.82 µM | 1.82 µM | 3.83 µM | 2.63 µM | 3.33 µM |
| Cc1cc(C)nc(NS(=O)(=O)c2ccc(Nc3c4ccccc4nc4c(C(=O)Nc5ccc(S(=O)(=O)N=C(N)N)cc5)cccc34)cc2)n1 | > 100 µM | > 100 µM | > 100 µM | > 100 µM |  | > 100 µM |  | > 100 µM | > 100 µM |  |  |  |  |  |  |  |  |  |  |
| O=S(=O)(/C=C/C(=C/c1ccccc1)S(=O)(=O)c1ccccc1)c1ccccc1 |  | 2.89 µM | 2.88 µM |  |  | 3.45 µM | 3.05 µM | 3.22 µM | 5.42 µM |  |  |  |  |  |  |  |  |  |  |
| O=C(CCC1C(=O)NC(=S)NC1=O)c1ccc2ccccc2c1 | > 100 µM | > 100 µM | > 100 µM | > 100 µM | > 100 µM | > 100 µM | > 100 µM | > 100 µM | > 100 µM |  |  |  |  |  |  |  |  |  |  |
| CC1(c2ccccc2Cl)C(C#N)C(=O)NC(=O)C1C#N (configuration not stated) | > 100 µM | > 100 µM | > 100 µM | 59.8 µM | 48.5 µM | > 100 µM | > 100 µM | > 100 µM |  |  |  |  |  |  |  |  |  |  |  |
| CC(C)=CC(=O)N(C)C1C2CN3CCC(O2)C13 (configuration not stated) | > 100 µM | > 100 µM | > 100 µM |  | > 100 µM | > 100 µM | > 100 µM | > 100 µM | > 100 µM |  |  |  |  |  |  |  |  |  |  |
| CCN(CC)c1ccc2c(c1)Oc1ccc(N(CC)CC)cc1C21Oc2ccccc2-c2c1c1ccccc1n2CC (configuration not stated) | > 100 µM | > 100 µM | > 100 µM | 2.12 µM | 11 µM |  | > 100 µM | 63.2 µM |  |  |  |  |  |  |  |  |  |  |  |
| C(=N/N(Cc1ccccc1)Cc1ccccc1)/c1ccccc1 | > 100 µM | > 100 µM | > 100 µM | > 100 µM |  | > 100 µM | > 100 µM | > 100 µM | > 100 µM | 94.9 µM | 96.9 µM | > 100 µM | > 100 µM | > 100 µM | 53.3 µM | > 100 µM | 44.5 µM | > 100 µM | > 100 µM |
